Values quoted from earlier work in US20230200430A1, “ORAL PRODUCTS WITH HIGH-DENSITY LOAD” (NICOVENTURES TRADING LIMITED, priority 2021, published 2023).

Settings: qualitative statement

solubility in water / aqueous environment | SMILES
water soluble | CC(/C=C/C=C(C)/C=C/C(=O)O)=C\C=C\C=C(C)\C=C\C=C(C)\C=C\C(=O)O (stereo in doubt) [norbixin, (2E,4E,6E,8E,10E,12E,14E,16E,18E)-4,8,13,17-tetramethylicosa-2,4,6,8,10,12,14,16,18-nonaenedioic acid]
insoluble in water | COC(=O)/C=C/C(C)=C\C=C\C(C)=C\C=C\C=C(C)\C=C\C=C(C)\C=C\C(=O)O [Bixin]

SMILES | solubility in water / aqueous environment
C=C(C)[C@@H]1CCC(C)=C[C@H]1c1c(O)cc(CCCCC)cc1O [CBD, cannabidiol, reference compound] | insoluble in an aqueous environment
